Data on four compounds can be found in publication PMC11206203, “Peptide macrocyclisation via intramolecular interception of visible-light-mediated desulfurisation” (Chemical Science, 2024).

The nature of data set [1]: CD spectroscopy, alpha-helical structure. The conditions noted are these: alpha-helical content by CD; Fig. S159. The format is physicochemical.
Data set [2] addresses T1, MCL-1 (Homo sapiens, UniProt Q07820).
T1 construct: MCL-1 (residues 172-327) was expressed and purified as described previously; made in house
Description: Competitive inhibition, fluorescence anisotropy, MCL-1 and fluorophore-labelled WT BH3 sequence. It counts as binding. The conditions noted are these: competition FA; MCL-1 (residues 172-327), tracer FAM-Ahx-BID / fluorophore-labelled WT BH3 sequence; 20 mM Tris, 150 mM NaCl, pH 7.6; 384-well plates, tested in triplicate; excitation 480 nm, emission 535 nm; fit to sigmoidal logistic model; Fig. S160; read-out: inhibitory potency (competitive inhibition, fluorescence anisotropy). The text has this: Finally, to explore internal peptide ‘stapling’ using this strategy, we selected a region of a BH3 protein – BID80–102, that binds MCL-1 to regulate apoptosis.[53,72] This PPI is known to play a significant role in cancer development and progression.[53,72] Three sequences (54–56) were synthesised with alGly and Cys positioned to afford either an internal i, i + 4 staple (57, 59; Fig. 5 and ESI ^†) or i, i + 7 staple (58; Fig. 5 and ESI ^†), fixing the length of either one or two full helical turns of the peptide, respectively. In addition, peptide macrocycle 26 is a head-to-tail macrocycle representing the i, i + 4 binding region of these longer sequences. The staple for all three peptides was successfully formed under the standard conditions, albeit in lower yield than the N- to C-terminal cyclisations previously explored (57–59). The alpha-helical structure of peptide 59 was assessed via CD spectroscopy. […]
All samples were prepared in 20mM Tris, 150 mM NaCl, pH 7.6 solutions. All assays were performed using 384 -well plates (Greiner Bio -one, UK) and tested in triplicate using an EnVisionTM 2103 MultiLabel plate reader (Perkin Elmer; Waltham, MA, USA). […] Measured data were processed and analysed as previously described. […]
On the technique in general: In fluorescence polarisation assays a small probe gives low polarisation when free and higher when bound to something large.

Data set [3] is described as follows: Same desulfurative C-C cyclisation as series A (TCEP, Ir photocatalyst, blue light) with N-terminal Cys and C-terminal allylglycine (reversed pentapeptides). The conditions noted are these: the molecule shown is the open-chain precursor; 17-membered ring; 6 M Gdn.HCl, 0.1 M Na2HPO4 pH 7.5-8.0 / MeCN 9:1; 0.5 mM; 25.0 °C.
The nature of data set [4]: C(sp3)-C(sp3) bond formation by visible-light-mediated Cys desulfurisation: alanyl radical adds to terminal alkene of allylglycine (or O-allyl Ser, pentenylGly, acrylamide); TCEP 50 eq (25 mM), (Ir[dF(CF3)ppy]2(dtbpy))PF6 1 mol%, 450 nm blue LED; unprotected peptides. The conditions noted are these: from C=CC[C@H](NC(=O)[C@H](C)NC(=O)[C@H](CC(C)C)NC(=O)[C@H](Cc1c[nH]cn1)NC(=O)[C@H](CCCNC(=N)N)NC(=O)[C@H](C)NC(=O)[C@@H](NC(=O)[C@H](CC(N)=O)NC(=O)[C@H](CCCNC(=N)N)NC(=O)[C@@H](NC(=O)[C@@H](NC(=O)[C@H](CC(=O)O)NC(=O)[C@H](CCC(=O)O)NC(C)=O)[C@@H](C)CC)[C@@H](C)CC)[C@@H](C)CC)C(=O)N[C@H](C(=O)NCC(=O)N[C@@H](CC(=O)O)C(=O)N[C@@H](CS)C(=O)N[C@@H](CCCC)C(=O)N[C@@H](CC(=O)O)C(=O)N[C@@H](CCCNC(=N)N)C(=O)N[C@@H](CO)C(=O)N[C@H](C(=O)N[C@@H](Cc1c[nH]c2ccccc12)C(N)=O)[C@@H](C)CC)C(C)C; 17-membered ring; 6 M Gdn.HCl, 0.1 M Na2HPO4 pH 7.5-8.0 / MeCN 9:1; 0.5 mM; 25.0 °C.

Where a SMILES comes first, the peptide text is derived from it. [ ]: non-standard residue; d: D form. Nle = CCCC[C@H](N)C(=O)O

T1 sequence (Q07820 172-327): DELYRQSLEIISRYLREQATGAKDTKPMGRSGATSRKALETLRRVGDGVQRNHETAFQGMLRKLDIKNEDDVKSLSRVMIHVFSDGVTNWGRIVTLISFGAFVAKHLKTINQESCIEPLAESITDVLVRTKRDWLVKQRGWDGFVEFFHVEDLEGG

As for “Ac-EDIIRNIARHLA(alG)VGDCNLDRSIW-NH2 [compound 56, starting peptide carrying the allyl glycine residue]”, the “helicity (CD spectroscopy)” value in data set [1] is recorded as 38%.
Take `CCCC[C@H](NC(=O)[C@H](CO)NC(=O)[C@H](CC(=O)O)NC(=O)CNC(=O)[C@@H](NC(=O)[C@H](CCC(N)=O)NC(=O)[C@H](C)NC(=O)[C@H](CC(C)C)NC(=O)[C@H](Cc1c[nH]cn1)NC(=O)[C@H](CCCNC(=N)N)NC(=O)[C@H](C)NC(=O)[C@@H](NC(=O)[C@H](CC(N)=O)NC(=O)[C@H](CCCNC(=N)N)NC(=O)[C@@H](NC(=O)[C@@H](NC(=O)[C@H](CC(=O)O)NC(=O)[C@H](CCC(=O)O)NC(C)=O)[C@@H](C)CC)[C@@H](C)CC)[C@@H](C)CC)C(C)C)C(=O)N[C@@H](CC(=O)O)C(=O)N[C@@H](CCCNC(=N)N)C(=O)N[C@@H](CO)C(=O)N[C@H](C(=O)N[C@@H](Cc1c[nH]c2ccccc12)C(N)=O)[C@@H](C)CC` [BID-wt, reference compound] (Ac-EDIIRNIARHLAQVGDS[Nle]DRSIW-NH2): the IC50 in data set [2] is 7.4 ± 0.9 µM.
`C=CC[C@H](NC(=O)[C@H](CCC(=O)O)NC(=O)[C@H](Cc1ccccc1)NC(=O)[C@H](C)NC(=O)[C@@H](N)CS)C(N)=O` [H-Cys-Ala-Phe-Glu-(allylGly)-NH2] registered a ring closure, conversion by HPLC in data set [3] of 25%.
For the compound `CCCC[C@H](NC(=O)[C@@H]1CCCC[C@H](NC(=O)[C@H](C)NC(=O)[C@H](CC(C)C)NC(=O)[C@H](Cc2c[nH]cn2)NC(=O)[C@H](CCCNC(=N)N)NC(=O)[C@H](C)NC(=O)[C@@H](NC(=O)[C@H](CC(N)=O)NC(=O)[C@H](CCCNC(=N)N)NC(=O)[C@@H](NC(=O)[C@@H](NC(=O)[C@H](CC(=O)O)NC(=O)[C@H](CCC(=O)O)NC(C)=O)[C@@H](C)CC)[C@@H](C)CC)[C@@H](C)CC)C(=O)N[C@@H](C(C)C)C(=O)NCC(=O)N[C@@H](CC(=O)O)C(=O)N1)C(=O)N[C@@H](CC(=O)O)C(=O)N[C@@H](CCCNC(=N)N)C(=O)N[C@@H](CO)C(=O)N[C@H](C(=O)N[C@@H](Cc1c[nH]c2ccccc12)C(N)=O)[C@@H](C)CC` [compound 59], the IC50 in data set [2] worked out at 26 ± 4 µM. For the same compound, the ring closure, isolated yield in data set [4] came out at 49%.
